# Measured values from patent US20080255206A1, “Rxr Agonists and Antagonists, Alone or in Combination with Ppar Ligands, in the Treatment of Metabolic and Cardiovascular Diseases” (priority 2005, published 2008).
# Columns and labels:
# c-Jun mRNA expression = test: Semi chronic inflammation of mouse ears, c-Jun mRNA (northern blot); format: in vivo, C57BL/6 mice
# Method: (§1) […] mice of the C57BL/6 strain are used. Inflammation is induced on mouse ears with either AtRA, 9-cis RA or TPA by topical application. Inflammation is measured objectively by determination of the activity of myeloperoxidase (MPO) being directly correlated to the infiltration of polymorphonuclear white blood cells and by the determination of mRNA expression of c-jun, a protein implicated in the AP-1 transduction pathway according to known methods, see e.g. P. L. Stanley et al., Skin Pharmacol. 4, 262-271 (1991) (MPO assay), N. Basset-Sequin et al., J. Invest. Dermatol. 94, 418-422 (1990), F. J. Rauscher et al., Cell 52, 471-480 […], P. Sassone-Corn et al., Nature 326, 507-510 (1987), and M. Pfahl, Endocr. Rev. 14, 651-658, 1993, which are incorporated by reference regarding the experimental method.
# (§2) The anti-inflammatory effect of topical RXR antagonists is tested by determination of myeloperoxidase activity in % of vehicle controls. The effect of the RXR antagonist compound 15 is also compared with the well known anti-inflammatory effect of the two corticosteroids, clobetasol dipropionate and betamethasone propionate. For induction of inflammation, AtRA and TPA are applied topically to the skin and the administration of the test compounds, the RXR antagonist compound 15 and the two corticosteroids are given in the following order, according to the schedule, described in: Skin Pharmacol 1991; 4 (4): 262-271, Stanley P L. et.al.: RA or TPA is administered on days 0, 2, 4, 7 and 9, compound 15 or corticosteroids are administered twice daily on day 7, day 8 and day 9 and once on day 10 in the morning. The mice are sacrificed on day 10 in the afternoon.
# In the same experiment, the expression of c-Jun mRNA is determined by northern blot and expressed in percent of the vehicle controls.
# [1] = test system: myeloperoxidase (MPO) activity; test: Semi chronic inflammation of mouse ears, MPO activity; format: in vivo, C57BL/6 mice; settings: 11 d
# Method: as §1
# (§3) In the “acute inflammation” test, mice are treated topically (epicutaneously), orally or intraperitoneally, daily for 4 days. In the “semi chronic inflammation” test, mice are treated topically according to the schedules given below. For each experiment, a group of at least 4 mice of both sexes are used in the defined condition, regarding placebo, vehicle control, compound, topical formulation, oral formulation, dosage and concentration. The topical vehicle consists of ethanol/PEG 400/water (3:1:1).
# as §2
# humans = settings: clinical trials by other authors; cited from earlier work
# RXRγ = molecular target: T1, RXRγ (Homo sapiens, UniProt P48443); test: Retinoid binding assay, RXRγ; design: made in house; host or cells: E. coli; settings: [3H] 9-cis retinoic acid 20 nM; read-out: Binding Affinity IC50 RXR γ
# T1 sequence (P48443 1-463): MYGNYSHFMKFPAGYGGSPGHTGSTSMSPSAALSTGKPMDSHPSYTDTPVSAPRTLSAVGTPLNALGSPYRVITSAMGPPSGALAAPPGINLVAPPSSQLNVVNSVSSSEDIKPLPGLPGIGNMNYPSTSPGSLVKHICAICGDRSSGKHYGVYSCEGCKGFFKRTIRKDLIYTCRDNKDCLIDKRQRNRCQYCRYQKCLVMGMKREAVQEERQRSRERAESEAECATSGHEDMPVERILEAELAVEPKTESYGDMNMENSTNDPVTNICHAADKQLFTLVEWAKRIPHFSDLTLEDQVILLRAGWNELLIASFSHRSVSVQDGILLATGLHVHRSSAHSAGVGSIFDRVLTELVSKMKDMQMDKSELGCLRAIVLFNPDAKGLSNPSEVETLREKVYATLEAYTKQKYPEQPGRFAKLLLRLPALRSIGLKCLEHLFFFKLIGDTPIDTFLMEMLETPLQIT
# Text: The DEF domains of RAR's and the full length RXR's, expressed in E.coli, are used to measure competitive retinoid binding. […] 9-cis retinoic acid (for RXR's), respectively. […] Separation of bound from free radioactivity is achieved by charcoal/dextran (RAR's) or by desalting columns (RXR's). […] Retinoid Activation Assays
# [2] = test system: myeloperoxidase (MPO) activity; test: Acute inflammation of mouse ears, MPO activity; format: in vivo, C57BL/6 mice; settings: TPA 0.005% alone, topical, 4 d
# Method: as §1, §3
# The anti-inflammatory effect of topical RXR antagonist compound 15 is tested by determination of myeloperoxidase activity in % of vehicle treated controls. For induction of inflammation 9-cis RA or TPA are applied topically to the skin, daily for 4 days. The RXR antagonist compound 15 (see Table 1) is administered topically one hour after the application of the inflammation inducing agent. The mice are sacrified 24 hours after the last treatment.
# [3] = TPA 0.005% + test compound 0.05%
# [4] = TPA 0.005% + test compound 0.05% topical
compound,measurement,setting,value
CCC(=O)O[C@]1(C(=O)CCl)[C@@H](C)C[C@H]2[C@@H]3CCC4=CC(=O)C=C[C@]4(C)[C@@]3(F)[C@@H](O)C[C@@]21C,c-Jun mRNA expression (% of vehicle treated mice),c-Jun mRNA expression; [3],43 % of vehicle treated mice
same,MPO activity (% vehicle treated mice),[1]; [4],239 ± 43 % vehicle treated mice
"CC1=C(/C=C/C(C)=C/C=C/C(C)=C/C(=O)O)C(C)(C)CCC1 [At RA, all-trans retinoic acid]",MPO activity (% vehicle treated mice),"[1]; At RA 0.05% alone, topical",1371 ± 345 % vehicle treated mice
"Cc1cc2c(cc1C1(c3ccc(C(=O)O)cn3)CC1)C(C)(C)CCC2(C)C [Compound 3, 6-[1-(3,5,5,8,8-Pentamethyl-5,6,7,8-tetrahydro-naphthalen-2yl)-cyclopropyl]-nicotinic acid, reference compound]",Serum lipids in clinical trials (humans),humans,marked triglyceridemia
same,IC50,RXRγ,90 nM
"CCCCCCCCCCCCCC(=O)O[C@@H]1[C@@H](C)[C@@]2(O)[C@@H](C=C(CO)C[C@]3(O)C(=O)C(C)=C[C@@H]23)[C@@H]2C(C)(C)[C@]12OC(C)=O [TPA, 12-O-tetradecanoylphorbol-13-acetate]",MPO activity (% vehicle treated mice),[2],376 ± 72 % vehicle treated mice
same,c-Jun mRNA expression (% of vehicle treated mice),c-Jun mRNA expression; TPA 0.005% alone,163 % of vehicle treated mice
same,MPO activity (% vehicle treated mice),"[1]; TPA 0.005% alone, topical",572 ± 61 % vehicle treated mice
betamethasone propionate,c-Jun mRNA expression (% of vehicle treated mice),c-Jun mRNA expression; [3],24 % of vehicle treated mice
same,MPO activity (% vehicle treated mice),[1]; [4],257 ± 38 % vehicle treated mice
